We go through 16 compounds from patent publication US5523308A, “Peptidyl heterocycles useful in the treatment of thrombin related disorders” (priority 1995, dated 1996).

The target of one data set is T1, Bovine type 1 trypsin (Bos taurus, UniProt P00760).
T1 construct: purchased Sigma
T1 sequence (P00760 24-246): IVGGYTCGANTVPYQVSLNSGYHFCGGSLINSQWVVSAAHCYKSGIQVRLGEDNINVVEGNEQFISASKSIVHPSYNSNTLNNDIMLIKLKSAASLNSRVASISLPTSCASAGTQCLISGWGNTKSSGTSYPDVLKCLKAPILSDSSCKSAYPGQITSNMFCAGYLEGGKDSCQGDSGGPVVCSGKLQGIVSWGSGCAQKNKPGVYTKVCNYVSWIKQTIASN
Briefly: Trypsin-catalyzed hydrolysis of chromogenic substrate Spectrozyme TRY (in vitro enzyme assay). The data set is classed as biochemical. The conditions noted are these: 3.2 U/ml trypsin, 0.1-0.3 mM Spectrozyme TRY; read-out: Trp IC50. How it is done: The compounds of the invention were tested for their ability to inhibit thrombin mediated hydrolysis. An in vitro enzyme assay was performed as well as an ex vivo assay. In addition, the compounds were tested in vitro for their ability to inhibit trypsin, as an indication of their selectivity.
Trypsin-catalyzed hydrolysis rates were measured using the same method as the thrombin procedure.
The compound numbers in the table correspond to the examples described hereinafter.

Data set [1] in a line: Ex vivo i.v. assay for duration of action: time to half plasma elimination from thrombin inhibition in rat plasma. The conditions noted are these: male Long Evans rats, i.v. via femoral vein, from slope of Vo vs. time.
Method: (§1) An ex vivo assay was conducted to determine the duration of action of the compounds of Formula I. For this i.v. assay male rats (Long Evans, 350-500 g) were implanted with a teflon cannulae via the femoral artery while under anesthesia (pentobarbital i.p., 35 mg/kg). […] The animals were allowed to recover for at least 24 h after the surgical procedure.
(§2) The test compound was dispersed in water and delivered to the animal (0.25 mL) via the femoral vein. […] A plasma sample was obtained by centrifuging the blood at 10,000 rpm for 5 min. This sample is analyzed for thrombin inhibition using the chromogenic assay, described below.
(§3) Datum was collected over a 30 min period and the initial rate of substrate hydrolysis (V0 (mOD/min)) was calculated with an analysis program (Softmax, Molecular Devices).
(§4) The time to half plasma elimination (t 1/2) was calculated from the slope of Vo vs. time, using the following equation: t 1/2=-1.6 slope.
Another data set concerns the target T2, human alpha-thrombin (Homo sapiens, UniProt P00734).
T2 construct: commercial human alpha-thrombin (American Diagnostica); purchased American Diagnostica
Briefly: Thrombin-catalyzed hydrolysis of chromogenic substrate Spectozyme TH (in vitro enzyme assay). The conditions noted are these: 1 nM thrombin, 37° C., pH 7.4; for pIC50: 50 μM Spectozyme TH, read-out: Thr IC50. In kind it is biochemical.

For data set [2] the following is noted: rat, in vivo, iv.
Method: as §1, §2, §3, §4
Data set [3] in a line: Ex vivo bioavailability assay, i.v. and p.o. dosing, thrombin inhibition in rat plasma. The conditions noted are these: male rats, p.o. vs i.v., extrapolated drug in plasma vs. time. How it is done:
Bioavailability was determined by an ex vivo assay which incorporated hydrolysis rates from drug administered both i.v. and p.o. In this assay male rats were prepared as described above with a teflon tube implanted in their femoral artery. […] The test compound was dispersed in water (0.3-3.0 mg/mL final conc.) and delivered to the animals (0.25 mL) either i.v. or p.o..
A standard curve was generated by adding of drug or vehicle (100 μL) to whole blood (900 μL) followed by incubating (5 min) and centrifuging to obtain plasma. The percentage of thrombin inhibition was calculated by comparing the V0 of the vehicle to that of the drug treated samples. Datum from several runs were normalized with a statistical package (SAS) to generate a standard curve.
The percentage of thrombin inhibition in the treated animals was calculated by comparing the V0 prior to treatment with the V0 obtained from samples collected after treatment. The percent inhibition was applied to the standard curve (generated above) using the statistical package (SAS) and the quantity of drug in the sample was extrapolated.
Bioavailability (Bioavail.) was calculated from the plots of the extrapolated drug in sample vs. time for both i.v. and p.o. administration using the following equation:
%Bioavail. =(i.v. dose administered/p.o. dose administered)×(area under p.o. curve/area under curve i.v.)

Another data set concerns trypsin. The conditions noted are these: pancreatic agents quoted for comparison; read-out: IC50 (trypsin inhibitors used clinically); cited from earlier work.

pIC50, pKi: −log10 of the molar value. Where two headings read alike, the source gives them in different places.

Method for human alpha-thrombin: Thrombin-catalyzed hydrolysis rates were measured spectrophotometrically using commercial human alpha-thrombin (American Diagnostica), a chromogenic substrate (Spectozyme® TH (H-D-HHT-Ala-Arg-pNA.2AcOH), American Diagnostica) in aqueous buffer (10 mM Tris, 10 mM Hepes, 150 mM NaCl, 0.1% PEG; pH 7.4), and a microplate reader (Molecular Devices). Changes in absorbance at 405 nm were monitored (Softmax, Molecular Devices), upon addition of enzyme, both with and without inhibitor present at 37° C. over 30 minutes. […] Michaelis-Menton kinetics were applied to the initial reaction slopes. […] Michaelis-Menton kinetics were applied to the initial reaction slopes using the program K.Cat (Bio Metallics Inc.).

In the case of `CNC(C(=O)N1CCC[C@H]1C(=O)N[C@@H](CCCNC(=N)N)C(=O)c1nc2ccccc2s1)c1ccccc1` (single isomer, unassigned) [Compound 34], at Bovine type 1 trypsin, the negative logarithm of the IC50 (pIC50) is 8.52. Also, in data set [1], the “t1/2 (time to half plasma elimination)” value is recorded as 26 min.
On to `CN[C@H](Cc1ccccc1)C(=O)N1CCC[C@H]1C(=O)N[C@@H](CCCNC(=N)N)C(=O)c1nc2ccccc2s1` [Compound 1, N-METHYL-D-PHENYLALANYL-N-[4-[(AMINOIMINOMETHYL)AMINO]-1S-[(BENXOTHIAZOL-2- YL)CARBONYL]BUTYL]-L-PROLINAMIDE], for which the pKi on human alpha-thrombin (5-100 μM Spectozyme TH, read-out: Thr Ki (listed in place of the IC50)) is 9.64. Moreover, the “t1/2 (time to half plasma elimination)” value in data set [2] is reported as 19 min. Besides, the “Bioavail,” value in data set [3] is listed as 1.2%.
As to `CNC(Cc1ccccc1)C(=O)N1CCCC1C(=O)NC(CCCNC(=N)N)C(=O)c1nccs1` (stereo not shown) [Compound 4], the pIC50 at human alpha-thrombin is 7.72; on Bovine type 1 trypsin, 8.22. In addition, in data set [2], the “t1/2 (time to half plasma elimination)” value is 16 min.
For the compound `CCOC(=O)c1csc(C(=O)[C@H](CCCNC(=N)N)NC(=O)[C@@H]2CCCN2C(=O)[C@@H](Cc2ccccc2)NC)n1` [Compound 19, N-METHYL-D-PHENYLALANYL-N-[4-[(AMINOIMINOMETHYL)AMINO]-1S-[(4-ETHOXYCARBONY LTHIAZOL-2-YL)CARBONYL]BUTYL]-L-PROLINAMIDE], the figures for the pIC50 on human alpha-thrombin and at Bovine type 1 trypsin were 7.59 and 8.30, respectively. In data set [2], the “t1/2 (time to half plasma elimination)” value is given as 14 min.
With `CNC(Cc1ccccc1)C(=O)N1CCCC1C(=O)NC(CCCNC(=N)N)C(=O)c1nc2ccccc2[nH]1` (stereo not shown) [Compound 21], the pIC50 was 7.62 on human alpha-thrombin and 7.29 on Bovine type 1 trypsin. In addition, the “t1/2 (time to half plasma elimination)” value in data set [2] was 5 min.
For the compound `CN[C@H](Cc1ccccc1)C(=O)N1CCC[C@H]1C(=O)N[C@@H](CCCNC(=N)N)C(=O)c1nc2ccc(O)cc2s1` [Compound 25, N-METHYL-D-PHENYLALANYL-N-[4-[(AMINOIMINOMETHYL)AMINO]-1S-[(6-HYDROXYBENXOT HIAZOL-2-YL)CARBONYL]BUTYL]-L-PROLINAMIDE], the “t1/2 (time to half plasma elimination)” value in data set [1] is recorded as 14 min.
Take `CN[C@H](Cc1c(F)c(F)c(F)c(F)c1F)C(=O)N1CCC[C@H]1C(=O)N[C@@H](CCCNC(=N)N)C(=O)c1nc2ccccc2s1` [Compound 30]: the pIC50 was 7.54 at human alpha-thrombin and 8.70 on Bovine type 1 trypsin. Moreover, in data set [2], the “t1/2 (time to half plasma elimination)” value amounted to 6 min.
On to `CN[C@H](Cc1ccc(F)cc1)C(=O)N1CCC[C@H]1C(=O)N[C@@H](CCCNC(=N)N)C(=O)c1nc2ccccc2s1` [Compound 32, N-METHYL-D-(4-FLUOROPHENYL)ALANYL-N-[4-[(AMINOIMINOMETHYL)AMINO]-1S-[(BENXO THIAZOL-2-YL)CARBONYL]BUTYL]-L-PROLINAMIDE], for which, in data set [2], the “t1/2 (time to half plasma elimination)” value was found to be 19 min. For the same compound, on Bovine type 1 trypsin, the pIC50 is 8.70.
As for `CNC(C(=O)N1CCCC1C(=O)NC(CCCNC(=N)N)C(=O)c1nc2ccccc2s1)c1ccccc1` [Compound 33, N-METHYL-D-PHENYLGLYCYL-N-[4-[(AMINOIMINOMETHYL)AMINO]-1S-[(BENXOTHIAZOL-2- YL)CARBONYL]BUTYL]-L-PROLINAMIDE], the “t1/2 (time to half plasma elimination)” value in data set [2] is given as 18 min. Further, on Bovine type 1 trypsin, the negative-log IC50 (pIC50) is 8.70.
With `CC(=O)N[C@H](Cc1ccccc1)C(=O)N1CCC[C@H]1C(=O)N[C@@H](CCCNC(=N)N)C(=O)c1nc2ccccc2s1.O=C(O)C(F)(F)F` [Compound 35], the pIC50 at human alpha-thrombin was 6.70; at Bovine type 1 trypsin, 8.70. Moreover, the “t1/2 (time to half plasma elimination)” value in data set [2] stood at 11 min.
`CN[C@@H](C(=O)N1CCC[C@H]1C(=O)N[C@@H](CCCNC(=N)N)C(=O)c1nc2ccccc2s1)C1CCCCC1` [Compound 37, N-METHYL-D-CYCLOHEXYLGLYCYL-N-[4-[(AMINOIMINOMETHYL)AMINO]-1S-[(BENXOTHIAZO L-2-YL)CARBONYL]BUTYL]-L-PROLINAMIDE]: in data set [2], the “t1/2 (time to half plasma elimination)” value is 42 min. In addition, the pIC50 at Bovine type 1 trypsin is 9.00.
Consider `CN[C@H](Cc1ccccc1)C(=O)N1CCC[C@H]1C(=O)N[C@@H](CCCNC(=N)N)C(=O)c1nc2c(s1)CCCC2` [Compound 51, N-METHYL-D-PHENYLALANYL-N-[4-[(AMINOIMINOMETHYL)AMINO]-1S-[(4,5,6,7-TETRAHY DROBENZOTHIAZOL-2-YL)CARBONYL]BUTYL]-L-PROLINAMIDE], for which the pIC50 on human alpha-thrombin was 7.77; on Bovine type 1 trypsin it was 8.15. In data set [2], the “t1/2 (time to half plasma elimination)” value is given as 17 min.
With `CN[C@H](Cc1ccccc1)C(=O)N1CCC[C@H]1C(=O)N[C@@H](CCCNC(=N)N)C(=O)c1nc2ccc3ccccc3c2s1` [Compound 52, N-METHYL-D-PHENYLALANYL-N-[4-[(AMINOIMINOMETHYL)AMINO]-1S-[(NAPTHO[2,1-D]TH IAZOL-2-YL)CARBONYL]BUTYL]-L-PROLINAMIDE], the “t1/2 (time to half plasma elimination)” value in data set [2] was 8 min. On Bovine type 1 trypsin, the pIC50 was 8.30.
In the case of `CN[C@H](Cc1ccccc1)C(=O)N1CCC[C@H]1C(=O)N[C@@H](CCCNC(=N)N)C(=O)c1nc(C(=O)O)cs1` [Compound 54, N-METHYL-D-PHENYLALANYL-N-[4-[(AMINOIMINOMETHYL)AMINO]-1S-[(4-CARBOXYTHIAZO L-2-YL)CARBONYL]BUTYL]-L-PROLINAMIDE], the values for the pIC50 at human alpha-thrombin and at Bovine type 1 trypsin were 6.96 and 7.89, respectively. In data set [2], the “t1/2 (time to half plasma elimination)” value is 15 min.
`CN(C)C(=O)COC(=O)Cc1ccc(OC(=O)c2ccc(NC(=N)N)cc2)cc1` [camostat mesilate]: the pIC50 with trypsin is 8.00.
As for `N=C(N)c1ccc2cc(OC(=O)c3ccc(N=C(N)N)cc3)ccc2c1` [nafamostat], the negative-log IC50 (pIC50) in the data set with trypsin was 7.89.
